Test results taken from PubChem BioAssay AID1259411 (Chemical Carcinogenesis Research Information System (CCRIS), 2018).
Calls of active or inactive are those of the source. The rule behind the calls is not given here.

Tested on: rodent carcinogenicity bioassays, tumor incidence
Assay: CCRIS carcinogenicity studies
Outline: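 NCI-built, expert-reviewed records of carcinogenicity and related test outcomes (mutagenicity, tumor promotion/inhibition) compiled from published and report sources, historical span 1985-2011, not updated.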

## Nc1cc2c3ccccc3ccc2c2ccccc12
Species: MOUSE, Strain/Sex: SWISS/FEMALE, Route: INTRAPERITONEAL, Dose: 0, 100 NMOL (TOTAL DOSE) 1/7, 2/7 AND 4/7 ADMINISTERED ON DAYS 1, 8 AND 15 OF LIFE RESPECTIVELY (STUDY DURATION: 32 WK)
  carcinogen call: inactive; negative
Species: MOUSE, Strain/Sex: SWISS/MALE, Route: INTRAPERITONEAL, Dose: 0, 100 NMOL (TOTAL DOSE) 1/7, 2/7 AND 4/7 ADMINISTERED ON DAYS 1, 8 AND 15 OF LIFE RESPECTIVELY (STUDY DURATION: 32 WK)
  carcinogen call: inactive; negative

## Cc1nc(N)cc2[nH]c3ccccc3c12
Species: MOUSE, Strain/Sex: CDF1/FEMALE, Route: ORAL, Dose: 0, 200 PPM IN DIET FOR 621 D, Tumor Site: Type of Lesion: LIVER: HEPATOCELLULAR CARCINOMA
  carcinogen call: active; positive
Species: MOUSE, Strain/Sex: DDY/FEMALE, Route: BLADDER IMPLANT, Dose: 0, 5% IN PARAFFIN PELLET (STUDY DURATION: 40 WK), Tumor Site: Type of Lesion: URINARY BLADDER: TRANSITIONAL CELL CARCINOMA
  carcinogen call: active; positive
Species: RAT, Strain/Sex: F344/FEMALE, Route: ORAL, Dose: 0, 30, 100 PPM IN DIET FOR 112 WK (STUDY DURATION: 112 WK), Dose: 0, 30, 100 PPM IN DIET FOR 112 WK (STUDY DURATION: 112 WK), Tumor Site: Type of Lesion: MAMMARY GLAND: FIBROADENOMA OR FIBROMA, HEMATOPOIETIC SYSTEM: MALIGNANT LYMPHOMA, CLITORAL GLAND: ADENOMA, Tumor Site: Type of Lesion: MAMMARY GLAND: FIBROADENOMA OR FIBROMA, HEMATOPOIETIC SYSTEM: MALIGNANT LYMPHOMA, CLITORAL GLAND: ADENOMA
  carcinogen call: active; positive
Species: RAT, Strain/Sex: F344/MALE, Route: ORAL, Dose: 0, 30, 100 PPM IN DIET FOR 112 WK (STUDY DURATION: 112 WK), Dose: 0, 30, 100 PPM IN DIET FOR 112 WK (STUDY DURATION: 112 WK), Tumor Site: Type of Lesion: LIVER: HEPATOCELLULAR ADENOMA, URINARY BLADDER: TRANSITIONAL CELL PAPILLOMA, MAMMARY GLAND: FIBROADENOMA OR FIBROMA, Tumor Site: Type of Lesion: LIVER: HEPATOCELLULAR ADENOMA, URINARY BLADDER: TRANSITIONAL CELL PAPILLOMA, MAMMARY GLAND: FIBROADENOMA OR FIBROMA
  carcinogen call: active; positive

## CN=NCc1ccc(C(=O)NC(C)C)cc1
Species: MOUSE, Strain/Sex: CDF1/MALE, Route: GAVAGE, Dose: 0, 300 MG/KG IN 0.01 ML OF 0.5% AQUEOUS SOLUTION OF SODIUM CARBOXYMETHYL CELLULOSE 1/WK FOR 4 WK THEN 0, 400 MG/KG 1/WK, Dose: 0, 300 MG/KG IN 0.01 ML OF 0.5% AQUEOUS SOLUTION OF SODIUM CARBOXYMETHYL CELLULOSE 1/WK FOR 4 WK THEN 0, 400 MG/KG 1/WK, Tumor Site: Type of Lesion: PULMONARY SYSTEM: TUMOR, KIDNEY: CYSTADENOMA
  carcinogen call: active; positive

## O=[N+]([O-])c1cc2cccc3ccc4cccc1c4c32
Species: RAT, Strain/Sex: STRAIN-CD/FEMALE, Route: INJECTION, Dose: 0, 0.1 ML IN 20.3 UMOL/ML DMSO INJECTED INTO MAMMARY TISSUE OF THE 3 LEFT THORACIC NIPPLES FOLLOWED THE NEXT D BY SIMILA, Tumor Site: Type of Lesion: MAMMARY GLAND: FIBROADENOMA, ADENOCARCINOMA
  carcinogen call: active; positive
Species: RAT, Strain/Sex: STRAIN-CD/FEMALE, Route: INJECTION, Dose: 0, 0.1 ML OF A 20.3 UMOL/ML SOLUTION IN DMSO INJECTED INTO MAMMARY TISSUE UNDERLYING 3 LEFT THORACIC NIPPLES THE FOLLOWI, Tumor Site: Type of Lesion: MAMMARY GLAND: FIBROADENOMA
  carcinogen call: active; positive
Species: RAT, Strain/Sex: STRAIN-CD/FEMALE, Route: INTRAPERITONEAL, Dose: 0, 67 UMOL/KG BW IN DMSO 3/WK FOR 4 WK (STUDY DURATION: 61 WK), Tumor Site: Type of Lesion: MAMMARY GLAND: ADENOCARCINOMA
  carcinogen call: active; positive
Species: RAT, Strain/Sex: STRAIN-CD/FEMALE, Route: INTRAPERITONEAL, Dose: 0, 67 UMOL/KG/BW IN 25 UMOL/ML DMSO 3/WK FOR 4 WK (TOTAL DOSE: 0; 119 UMOL) ADMINISTERED TO WEANLING RATS (STUDY DURATIO, Dose: 0, 67 UMOL/KG/BW IN 25 UMOL/ML DMSO 3/WK FOR 4 WK (TOTAL DOSE: 0; 119 UMOL) ADMINISTERED TO WEANLING RATS (STUDY DURATIO, Tumor Site: Type of Lesion: MAMMARY GLAND: ADENOCARCINOMA
  carcinogen call: active; positive
Species: RAT, Strain/Sex: STRAIN-CD/FEMALE, Route: SUBCUTANEOUS, Dose: 0, 75 UMOL (TOTAL DOSE) ADMINISTERED OVER 8 WK BEGINNING WITHIN 24 HR OF BIRTH (STUDY DURATION: 86 WK), Tumor Site: Type of Lesion: MAMMARY GLAND: TUMOR, INTEGUMENTARY SYSTEM: MALIGNANT FIBROUS HISTIOCYTOMA, HEMATOPOIETIC SYSTEM: LEUKEMIA, ZYMBAL GLAND, Tumor Site: Type of Lesion: MAMMARY GLAND: TUMOR, INTEGUMENTARY SYSTEM: MALIGNANT FIBROUS HISTIOCYTOMA, HEMATOPOIETIC SYSTEM: LEUKEMIA, ZYMBAL GLAND
  carcinogen call: active; positive

## Nc1ccc(-c2ccccc2)cc1
Species: DOG, Route: ORAL, Tumor Site: Type of Lesion: URINARY BLADDER
  carcinogen call: active; positive
Species: HUMAN, Route: ORAL, INHALATION, DERMAL, Tumor Site: Type of Lesion: URINARY BLADDER
  carcinogen call: active; positive
Species: MOUSE, Route: ORAL, Tumor Site: Type of Lesion: URINARY BLADDER, LIVER
  carcinogen call: active; positive
Species: MOUSE, Route: SUBCUTANEOUS, Tumor Site: Type of Lesion: LIVER
  carcinogen call: active; positive
Species: MOUSE, Strain/Sex: B6C3F1/MALE, Route: INTRAPERITONEAL, Dose: 0, 0.625 UMOL IN 35 µL DMSO ON D 1, 8, AND 15 AFTER BIRTH (STUDY DURATION: 8 MO), Tumor Site: Type of Lesion: LIVER: HEPATOCELLULAR ADENOMA
  carcinogen call: active; positive
Species: MOUSE, Strain/Sex: B6C3F1/MALE, Route: INTRAPERITONEAL, Dose: 0, 0.625 UMOL IN 35 µL DMSO ON D 1, 8, AND 15 AFTER BIRTH (STUDY DURATION: 12 MO), Tumor Site: Type of Lesion: LIVER: HEPATOCELLULAR ADENOMA, HEPATOCELLULAR CARCINOMA
  carcinogen call: active; positive
Species: MOUSE, Strain/Sex: B6C3F1/MALE, Route: INTRAPERITONEAL, Dose: 0, 1.25 UMOL IN 35 µL DMSO ON D 1, 8, AND 15 AFTER BIRTH (STUDY DURATION: 8 MO), Tumor Site: Type of Lesion: LIVER: HEPATOCELLULAR ADENOMA
  carcinogen call: active; positive
Species: MOUSE, Strain/Sex: B6C3F1/MALE, Route: INTRAPERITONEAL, Dose: 0, 1.25 UMOL IN 35 µL DMSO ON D 1, 8, AND 15 AFTER BIRTH (STUDY DURATION: 12 MO), Tumor Site: Type of Lesion: LIVER: HEPATOCELLULAR ADENOMA, HEPATOCELLULAR CARCINOMA
  carcinogen call: active; positive
Species: MOUSE, Strain/Sex: BALB/CSTCRLFC3HF/NCTR/FEMALE, Route: ORAL, Dose: 0, 7, 19, 38, 75, 150, 300 PPM IN DRINKING WATER FOR 96 WK (STUDY DURATION: 96 WK), Dose: 0, 7, 19, 38, 75, 150, 300 PPM IN DRINKING WATER FOR 96 WK (STUDY DURATION: 96 WK), Tumor Site: Type of Lesion: BLOOD VESSELS: ANGIOSARCOMA, LIVER: HEPATOCELLULAR CARCINOMA
  carcinogen call: active; positive
Species: MOUSE, Strain/Sex: BALB/CSTCRLFC3HF/NCTR/MALE, Route: ORAL, Dose: 0, 7, 14, 28, 55, 110, 220 PPM IN DRINKING WATER FOR 96 WK (STUDY DURATION: 96 WK), Dose: 0, 7, 14, 28, 55, 110, 220 PPM IN DRINKING WATER FOR 96 WK (STUDY DURATION: 96 WK), Tumor Site: Type of Lesion: BLOOD VESSELS: ANGIOSARCOMA, BLADDER: CARCINOMA
  carcinogen call: active; positive
Species: RABBIT, Route: ORAL, Tumor Site: Type of Lesion: URINARY BLADDER
  carcinogen call: active; positive
Species: RAT, Route: SUBCUTANEOUS, Tumor Site: Type of Lesion: MAMMARY GLAND, INTESTINES
  carcinogen call: active; positive

## c1ccc2c(c1)cc1ccc3cc4ccccc4c4ccc2c1c34
Species: HAMSTER, Route: SUBCUTANEOUS, Tumor Site: Type of Lesion: INJECTION SITE
  carcinogen call: active; positive
Species: MOUSE, Route: DERMAL, Tumor Site: Type of Lesion: INTEGUMENTARY SYSTEM (SKIN)
  carcinogen call: active; positive
Species: MOUSE, Route: SUBCUTANEOUS, Tumor Site: Type of Lesion: INJECTION SITE
  carcinogen call: active; positive

## O=C(O)[C@H]1O[C@@H](Nc2ccc3c(c2)Cc2ccccc2-3)[C@H](O)[C@@H](O)[C@@H]1O
Species: RAT, Strain/Sex: F344/MALE, Route: INJECTION, Dose: 0;1 UMOL IN 0.5 ML OF SOLUTION CONTAINING 0.4 ML PHOSPHATE BUFFERED SALINE/ GENTAMYCIN (PH 7) AND 0.1 ML DMSO INJECTED I
  carcinogen call: inactive; negative

## CO[C@H]1C[C@]2(C)[C@@H](O)CC[C@H]2[C@@H]2CCc3cc(O)ccc3[C@H]21
Species: HAMSTER, Strain/Sex: SYRIAN/MALE, Route: SUBCUTANEOUS IMPLANT, Dose: 0, 20 MG IN PELLETS IMPLANTED EVERY 2.5 MO FOR 9 MO (STUDY DURATION: 9 MO), Tumor Site: Type of Lesion: KIDNEY: TUMOR
  carcinogen call: active; positive
